Experimental data as given in US20150253323A1, “METHODS AND KITS FOR HIGH THROUGHPUT SCREENING FOR COMPOUNDS TARGETING DNA-BINDING AND RNA-BINDING PROTEINS” (The Florida International University Board of Trustees, priority 2014, published 2015).
Entries after “also recorded” stand apart in the source; their conditions may differ. Where a name gives a salt, the structure may show the parent alone. Starred links: 1 amine or outer side, 2 acyl side, 3 side chain; linkers in the order of their positions; H or OH if unused. Positions of bridges follow the written chain, without caps; N, C: chain ends. Non-standard residues stand in square brackets, D forms with d. Residues, ends and D or L forms follow the SMILES beside them. Chains are numbered I, II in the order given. Actinocin(9to1) = Cc1c2oc3c(C)ccc(C(=O)[*:1])c3nc-2c(C(=O)[*:2])c(N)c1=O; NMeV = CN[C@H](C(=O)O)C(C)C; Sar = CNCC(=O)O

Tested on: HMGA2-FL814 interaction
Assay: PDI-ELISA for HMGA2 binding to DNA oligomer FL814
Set-up: species or system mammalian
Details: for OD450 of the PDI-ELISA in the presence of the compound: 100 nM compound, 100 nM FL814, 1 μM HMGA2, 2×SSCT, OD450 without drug 1.44; for IC50: 25° C., read-out: IC50 for inhibition of binding of HMGA2 to DNA; for inhibition of HMGA2-FL814 interactions: compound at 100 nM in 2×SSCT, FIG. 12 / Table 1

| OD450 of the PDI-ELISA in the presence of the compound | Compound | also measured |
| --- | --- | --- |
| 1.56 | O=c1cc(-c2ccccc2)oc2ccc3ccccc3c12 [b-Naphthoflavone, β-naphthoflavone] |  |
| 0.65 | N=C(N)c1ccc(OCCCCCOc2ccc(C(=N)N)cc2)cc1 [Pentamidine, pentamidine isethionate salt] |  |
| 0.161 | N=C(N)c1ccc(-c2cc3ccc(C(=N)N)cc3[nH]2)cc1 [DAPI] | IC50: 60.6 ± 8.5 nM; inhibition of HMGA2-FL814 interactions: potently inhibit; also recorded: completely inhibit |
| 1.3 | CCN1/C(=C/C=C/C=C/c2oc3ccccc3[n+]2CC)Oc2ccccc21.[I-] [DODC] |  |
| 0.52 | CC(=O)NCC(=O)O.CC(=O)NCC(=O)O.N=C(N)c1ccc(N=NNc2ccc(C(=N)N)cc2)cc1 [Berenil, berenil] |  |
| 1.62 | N-methyl mesoporphyrin [NMM 580] |  |
| 1.83 | CN1C(=Cc2cc[n+](C)c3ccccc23)Sc2ccccc21 [Thiazole orange, thiazole orange] |  |

The next lines start with the compound.

| Compound | OD450 of the PDI-ELISA in the presence of the compound | also measured |
| --- | --- | --- |
| Nc1ccc2cc3ccc(N)cc3nc2c1 [Proflavine hemisulfate, proflavine hemisulfate] | 1.49 |  |
| Cc1c2ccncc2c(C)c2c1[nH]c1ccccc12 [Ellipticine] | 1.39 |  |
| Cc1c2oc3c(C)ccc(C(=O)N[C@@H]4C(=O)N[C@H](C(C)C)C(=O)N5CCC[C@H]5C(=O)N(C)CC(=O)N(C)[C@@H](C(C)C)C(=O)O[C@@H]4C)c3nc-2c(C(=O)N[C@@H]2C(=O)N[C@H](C(C)C)C(=O)N3CCC[C@H]3C(=O)N(C)CC(=O)N(C)[C@@H](C(C)C)C(=O)O[C@@H]2C)c(N)c1=O [Actinomycin D, actinomycin D] (I: T[dV]P[Sar][NMeV] / II: T[dV]P[Sar][NMeV]; ester I:1-I:C, II:1-II:C; linker I:N-II:N via Actinocin(9to1)) | 1.03 |  |
| O=c1cc(-c2ccccc2)oc2c1ccc1ccccc12 [a-Naphthoflavone, α-naphthoflavone] | 1.91 |  |
| C[n+]1ccccc1-c1c2nc(c(-c3cccc[n+]3C)c3ccc([nH]3)c(-c3cccc[n+]3C)c3nc(c(-c4cccc[n+]4C)c4ccc1[nH]4)C=C3)C=C2.[Cl-].[Cl-].[Cl-].[Cl-] [TMPyP2] | 1.7 | enhancement of HMGA2 binding to FL814 (OD450) (titration, 100 nM FL814, 1 μM HMGA2, FIG. 14): not able to stimulate |
| Cl.NCc1ccc2ccc3cccc4ccc1c2c34 [1-Pyrenemethylamine hydrochloride, 1-pyrenemethylamine hydrochloride] | 1.36 |  |
| COc1cccc2c1C(=O)c1c(O)c3c(c(O)c1C2=O)C[C@@](O)(C(C)=O)C[C@@H]3O[C@H]1C[C@H](NCc2ccc(CN[C@H]3C[C@H](O[C@H]4C[C@](O)(C(C)=O)Cc5c(O)c6c(c(O)c54)C(=O)c4c(OC)cccc4C6=O)O[C@@H](C)[C@H]3O)cc2)[C@H](O)[C@H](C)O1 [WP631] | 0.21 | IC50: 41 ± 4.5 nM; inhibition of HMGA2-FL814 interactions: potently inhibit; also recorded: completely inhibit |
| CN1CCN(c2ccc3[nH]c(-c4ccc5[nH]c(-c6ccc(O)cc6)nc5c4)nc3c2)CC1 [Hoechst 33258] | 0.166 | IC50: 73 ± 9.6 nM; inhibition of HMGA2-FL814 interactions: potently inhibit; also recorded: completely inhibit |
| COC1C(O)CC(OC2CC(Oc3cc4cc5c(c(O)c4c(O)c3C)C(=O)[C@@H](OC3CC(OC4CC(OC6CC(C)(O)C(OC(C)=O)C(C)O6)C(O)C(C)O4)C(O)C(C)O3)[C@H]([C@H](OC)C(=O)[C@@H](O)[C@@H](C)O)C5)OC(C)C2OC(C)=O)OC1C (stereo partly shown) [Chromomycin, chromomycin] | 1.3 |  |
| Nc1ccc2cc3ccc(N)cc3nc2c1 [Proflavine hydrochloride, proflavine hydrochloride] |  | OD450 of the PDI-ELISA in the presence of the compound (hydrochloride): 1.5 |
| COc1cc2cc3c4cc(OC)c(OC)cc4cc[n+]3c(C)c2cc1OC.[Cl-] [Coralyne chloride, coralyne chloride] | 1.38 |  |
